Results reported in a melting point compilation (Tetko et al.; mined from patent text by program, amines drawn as free bases though some values may be those of a salt).

**Q.** Which melting point does the source give for `Cc1ccc2nc(-c3ccc(N)c(Br)c3)sc2c1` here?
**A.** 188 to 190 °C

**Q.** For `CC1(C)c2c(ccc3cc(C(N)=O)c(Cn4cncn4)cc23)OC1O` (stereo not given), which melting point is on record?
**A.** 223 to 225 °C

**Q.** With `COc1ccc(N2CCN(S(=O)(=O)c3cccc(/C=C/C(=O)NO)c3)CC2)cc1` as the compound, how does the melting point read?
**A.** 203 °C

**Q.** Which melting point does the source give for `CCOCC1=C(C(=O)OCC)C(c2ccccc2)C(C(=O)OCC)=C(C)N1` (stereo not given) here?
**A.** 112 °C

**Q.** With `CCOC(=O)C(Cl)=Cc1cc(N(C(N)=S)c2cscc2C(=O)OC)ccc1Cl` as the compound, how does the melting point read?
**A.** 158 to 160 °C

**Q.** For `CN(C(=O)OC(C)(C)C)c1cc(Oc2cccnc2)ccc1N`, which melting point is on record?
**A.** 101 to 102 °C

**Q.** Which melting point does the source give for `N#Cc1cn(-c2ccc([N+](=O)[O-])c(N)c2)cc1-c1ccccc1` here?
**A.** 193 to 194 °C

**Q.** For `CC(C)N(C=O)C(=O)c1nc(Cl)c(Cl)[nH]1`, which melting point is on record?
**A.** 142 °C

**Q.** Which melting point does the source give for `Nc1nc2c(c(N3CCN(Cc4ccccc4)CC3)n1)SCCC2` here?
**A.** 124 to 127 °C

**Q.** For `Fc1ccc2[nH]c3c(c2c1)CCNC3c1ccc2c(c1)OCO2` (stereo not given), which melting point is on record?
**A.** 172 °C

**Q.** Which melting point does the source give for `OCn1c2ccccc2c2ccccc21` here?
**A.** 127 to 129 °C

**Q.** Which melting point does the source give for `Nc1nc(OCC2CC2)c2ncn(C3CC(F)C(CO)O3)c2n1` (stereo not given) here?
**A.** 80 to 81 °C

**Q.** With `CCCCS(=O)(=O)Nc1ccc(OCc2ccc3ccccc3n2)c(C#N)c1` as the compound, how does the melting point read?
**A.** 158 to 160 °C

**Q.** For `CC(=O)OCc1ccc(-c2[nH]c(-c3cccc4ccccc34)nc2C(=O)Nc2nccs2)cc1`, which melting point is on record?
**A.** 197 to 199 °C

**Q.** With `Cc1ccc2c(c1)CC(=O)c1cc(C(C)C(=O)O)ccc1O2` (stereo not given) as the compound, how does the melting point read?
**A.** 128 to 129 °C

**Q.** With `Cc1ccc(C)n1-c1ccc(C(C)C#N)cc1` (stereo not given) as the compound, how does the melting point read?
**A.** 79 to 80 °C

**Q.** For `COc1ccsc1NC(=O)Nc1cc([N+](=O)[O-])ccc1O`, which melting point is on record?
**A.** 173 °C

**Q.** For `CN1CCCCCCC1=NC(=S)Nc1ccccc1`, which melting point is on record?
**A.** 123 to 125 °C

**Q.** Which melting point does the source give for `CN1CC2CC(=NO)c3cccc4c3N2C(C1)c1ccccc1C4` (stereo not given) here?
**A.** 209 to 210 °C

**Q.** For `C(=C\c1cc(/C=C/c2ccccc2OCc2ccccn2)[nH]n1)/c1ccc2cc[nH]c2c1`, which melting point is on record?
**A.** 113 to 120 °C

**Q.** Which melting point does the source give for `CCOCc1cc2ccccc2oc1=Nc1ccc(F)cc1` here?
**A.** 84 to 86 °C

**Q.** For `O=C(O)c1cc2ccccc2c(-c2cccc(I)c2)n1`, which melting point is on record?
**A.** 145 to 146 °C

**Q.** Which melting point does the source give for `COc1ccc(C(=O)C=Cc2ccc(OCc3ccccc3)cc2)c(O)c1CC=C(C)C` here?
**A.** 70 to 71 °C

**Q.** For `CC(C)Cc1ccc(C(=O)O)c(=O)n1C`, which melting point is on record?
**A.** 118 to 119 °C

**Q.** Which melting point does the source give for `COc1cc2nc(N3CCN(C(=O)C=Cc4ccccc4)CC3)nc(N)c2cc1OC` here?
**A.** 245 to 248 °C

**Q.** For `COc1ncc(Cl)c(C)c1Br`, which melting point is on record?
**A.** 44 to 45 °C

**Q.** For `CCCCN=C(O)c1c(Sc2ccc([N+](=O)[O-])cc2)c(Sc2ccccc2)c(Sc2ccccc2)c(Sc2ccc([N+](=O)[O-])cc2)c1C(=O)O`, which melting point is on record?
**A.** 175 to 177 °C

**Q.** For `Cc1c(-c2ccccc2)nn(C(C)C(=O)N(C)C)c1C` (stereo not given), which melting point is on record?
**A.** 76 to 79 °C

**Q.** Which melting point does the source give for `COc1ccc([N+](=O)[O-])c(CC#N)n1` here?
**A.** 116 to 117 °C

**Q.** For `O=C(O)Cc1ccc(-c2ccc(F)cc2F)c(Cl)c1`, which melting point is on record?
**A.** 114 to 116 °C

**Q.** For `CN(C)CC(=O)Nc1ccccc1[N+](=O)[O-]`, which melting point is on record?
**A.** 44 to 47 °C

**Q.** For `CCCCC(=O)c1ccc(OCCCC(=O)O)c(Cl)c1Cl`, which melting point is on record?
**A.** 92 to 94 °C

**Q.** With `COC(=O)CCCc1nc2[nH]c3ccccc3c2c(=O)[nH]1` as the compound, how does the melting point read?
**A.** 258 °C

**Q.** For `CCOC(=O)c1cn(C2CC2)c2cc(NCCO)c(F)cc2c1=O`, which melting point is on record?
**A.** 228 to 230 °C

**Q.** Which melting point does the source give for `O=C1COc2cc(F)c(N3C(=O)C4=C(CCCC4)C3=O)cc2N1Cc1ccon1` here?
**A.** 206 to 210 °C

**Q.** For `COC(=O)c1nc(C#N)ccc1OCc1ccccc1`, which melting point is on record?
**A.** 104 to 105 °C

**Q.** With `Cn1cc(C=C2SC(=S)N(CC(=O)O)C2=O)c2ccccc21` as the compound, how does the melting point read?
**A.** 282 to 288 °C

**Q.** Which melting point does the source give for `O=C1CN(Cc2ccccn2)CC(=O)N1CCCN1CCN(c2ccc(F)cc2)CC1` here?
**A.** 90 °C

**Q.** For `CC(C)Oc1cc(-n2c(=O)cc(C(F)(F)F)n(C)c2=O)c(F)cc1Br`, which melting point is on record?
**A.** 79 °C

**Q.** For `CCOC(=O)c1cn(C)c2cnc3cc(F)c(N4CCNC(c5ccc(C)c(C)c5)C4)cc3c2c1=O` (stereo not given), which melting point is on record?
**A.** 290 °C
